Values after ≈ are worked out from the molar mass of the structure shown. Like-named read-outs stand apart in the source and are kept apart here. Bridge positions count the residues as written; N and C are the ends. Square brackets hold non-standard residues; d marks the D form. Peptide text beside a SMILES is read from it. Dab = NCC[C@H](N)C(=O)O
Assays:
E. cloacae 121187 = assay: microbe, parasite or virus in culture; format: cell-based, Enterobacter cloacae
Protocol: (§1) The adjuvant properties of the guanidinylated polymyxins were evaluated using the checkerboard assay as previously described. The bacterial solution was prepared as described in the antimicrobial susceptibility assay. The antibiotic of interest and the adjuvant were serially diluted two-fold along the x- and y-axis on a 96-well plate, respectively, resulting in varying concentrations of both agents in each well. Equal volumes of bacterial solution were added to the designated wells. The well consisting of bacterial solution served as the positive control, while the wells containing only media served as the negative control. The plate was then incubated at 37 °C for 18 h. After incubation, an Emax Plus microplate reader (Molecular Devices, Union City, CA, USA) was used to measure the OD at a wavelength of 590 nm to confirm the turbidity. The fractional inhibitory concentration (FIC) index was then determined to establish the relationship between the antibiotic and adjuvant. The FIC index corresponds to the sum of the FICs of the antibiotic and adjuvant. The FIC of each agent is calculated by dividing its MIC when it is used in combination by its MIC when used alone. FIC indices ≤0.5, 0.5 < x ≤ 4 and >4 indicate synergy, additivity and antagonism, respectively.

P. aeruginosa PA 108590 = assay: MIC, broth microdilution; format: cell-based, Pseudomonas aeruginosa; settings: β-lactamase harboring isolate
Protocol: (§2) For the preparation of the bacterial solution, overnight grown culture was diluted in 0.85% saline solution, adjusted to 0.5 McFarland turbidity and further diluted in Mueller–Hinton broth for inoculation to a final concentration of 5 × 10^5 colony forming units/mL (CFU/mL). The agents were serially diluted two-fold in a 96-well plate, and equal volumes of bacterial solution were subsequently added to the designated wells. The well consisting of bacterial solution served as the positive control, while the well containing only media served as the negative control. The plate was then incubated at 37 °C for 18 h. After incubation, an Emax Plus microplate reader (Molecular Devices, Union City, CA, USA) was used to measure the optical density (OD) at a wavelength of 590 nm to confirm the turbidity. The antibacterial activity corresponded to the MIC, which is defined as the lowest concentration of the agent necessary to inhibit visible bacterial growth.

P. aeruginosa PA 88949 [1] = assay: MIC, broth microdilution; format: cell-based, Pseudomonas aeruginosa; settings: β-lactamase harboring isolate
Protocol: as §2

P. aeruginosa PA 86052 [2] = assay: MIC, broth microdilution; format: cell-based, Pseudomonas aeruginosa; settings: β-lactamase harboring isolate
Protocol: as §2

P. aeruginosa PA 107092 [3] = assay: MIC, broth microdilution; format: cell-based, Pseudomonas aeruginosa; settings: β-lactamase harboring isolate
Protocol: as §2

P. aeruginosa PA 109084 [4] = assay: MIC, broth microdilution; format: cell-based, Pseudomonas aeruginosa; settings: β-lactamase harboring isolate
Protocol: as §2

P. aeruginosa P259-96918 = assay: Checkerboard assay; format: cell-based, Pseudomonas aeruginosa
Protocol: as §1

[5] = tested on: P. aeruginosa P262-101856; assay: Checkerboard assay; format: cell-based, Pseudomonas aeruginosa
Protocol: as §1

E. cloacae 118564 = assay: Checkerboard assay; format: cell-based, Enterobacter cloacae
Protocol: as §1

P. aeruginosa PAO1 = format: cell-based, Pseudomonas aeruginosa; settings: wild-type
Protocol: as §2

P. aeruginosa 114228 = format: cell-based, Pseudomonas aeruginosa; settings: 114228, 18 h
Protocol: as §2

A. baumannii 110193 = assay: microbe, parasite or virus in culture; format: cell-based, Acinetobacter baumannii
Outline: (§3)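 Two-fold serial dilutions of antibiotic and guanidinylated polymyxin adjuvant crossed in checkerboard against bacterial inoculum prepared as for susceptibility testing; 18 h at 37 °C, growth read as OD590. FIC index = sum of each agent's MIC in combination divided by its MIC alone; ≤0.5 synergy, >0.5–4 additivity, >4 antagonism.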

A. baumannii AB027 = assay: microbe, parasite or virus in culture; format: cell-based, Acinetobacter baumannii
Outline: as §3

A. baumannii 92247 = assay: microbe, parasite or virus in culture; format: cell-based, Acinetobacter baumannii
Outline: as §3

E. coli ATCC 25922 = format: cell-based, Escherichia coli; settings: ATCC 25922, 18 h
Protocol: as §2

A. baumannii AB031 = assay: Checkerboard assay; format: cell-based, Acinetobacter baumannii
Protocol: as §1

P. aeruginosa PA 88949 [6] = format: cell-based, Pseudomonas aeruginosa
Protocol: as §1

P. aeruginosa PA 86052 [7] = format: cell-based, Pseudomonas aeruginosa; settings: PA 86052, 18 h
Protocol: as §1

P. aeruginosa PA 107092 [8] = format: cell-based, Pseudomonas aeruginosa
Protocol: as §1

P. aeruginosa PA 109084 [9] = format: cell-based, Pseudomonas aeruginosa
Protocol: as §1

E. coli 107115 = assay: microbe, parasite or virus in culture; format: cell-based, Escherichia coli
Protocol: as §1

[10] = agent alone, one value per checkerboard plate
[11] = adjuvant at 0.5 μg/mL as printed
[12] = with 8 μM avibactam, adjuvant at 2 (PMBN, GCol), 1 (GPMB) μg/mL

For `CC(C)C[C@@H]1NC(=O)[C@@H](Cc2ccccc2)NC(=O)[C@H](CCN)NC(=O)[C@@H](NC(=O)[C@H](CCN)NC(=O)[C@@H](N)[C@@H](C)O)CCNC(=O)[C@H]([C@@H](C)O)NC(=O)[C@H](CCN)NC(=O)[C@H](CCN)NC1=O` [PMBN, polymyxin B nonapeptide] (H-T[Dab][Dab][Dab][dF]L[Dab][Dab]T; lactam 3-C (inferred); N-terminus assumed), the MIC alone (E. cloacae 121187; 121187, 18 h) was 256 µg/mL, the MIC alone (E. cloacae 121187; [10]) was > 256 µg/mL and the Fold-potentiation of erythromycin (E. cloacae 121187; with 8 μg/mL adjuvant) was 1. For the same molecule, the Fold-potentiation of rifampicin (E. cloacae 121187; with 8 μg/mL adjuvant) was 1, the MIC (P. aeruginosa PA 108590) was 1 µg/mL (≈ 1.04 µM) and the MIC (P. aeruginosa PA 88949 [1]) was 16 µg/mL (≈ 16.6 µM). The MIC (P. aeruginosa PA 86052 [2]) was 16 µg/mL (≈ 16.6 µM), the MIC (P. aeruginosa PA 107092 [3]) was 64 µg/mL (≈ 66.4 µM) and the MIC (P. aeruginosa PA 109084 [4]) was 32 µg/mL (≈ 33.2 µM). For the same molecule, the MIC alone (P. aeruginosa P259-96918; [10]) was > 256 µg/mL, the Fold-potentiation of aztreonam (P. aeruginosa P259-96918; with 4 μg/mL adjuvant) was 8 and the Fold-potentiation of ceftazidime (P. aeruginosa P259-96918; with 4 μg/mL adjuvant) was 4. The Fold-potentiation of erythromycin (P. aeruginosa P259-96918; with 4 μg/mL adjuvant) was 8, the Fold-potentiation of rifampicin (P. aeruginosa P259-96918; with 4 μg/mL adjuvant) was 128 and the MIC alone [5, 10] was > 256 µg/mL. It also gave a Fold-potentiation of aztreonam ([5]; with 8 μg/mL adjuvant) of 8, a Fold-potentiation of ceftazidime ([5]; with 8 μg/mL adjuvant) of 4 and a Fold-potentiation of erythromycin ([5]; with 8 μg/mL adjuvant) of 16. For the same molecule, the Fold-potentiation of rifampicin ([5]; with 8 μg/mL adjuvant) was 16, the MIC alone (E. cloacae 118564; [10]) was > 256 µg/mL and the Fold-potentiation of erythromycin (E. cloacae 118564; with 8 μg/mL adjuvant) was 4. The Fold-potentiation of rifampicin (E. cloacae 118564; with 8 μg/mL adjuvant) was 8, the MIC (P. aeruginosa PAO1) was 128 µg/mL (≈ 133 µM) and the MIC (P. aeruginosa 114228) was >256 µg/mL. For the same molecule, the MIC alone (A. baumannii 110193; 110193, 18 h) was 256 µg/mL, the MIC alone (A. baumannii 110193; [10]) was > 256 µg/mL and the Fold-potentiation of ceftazidime (A. baumannii 110193; with 1 μg/mL adjuvant) was 1. The Fold-potentiation of erythromycin (A. baumannii 110193; with 1 μg/mL adjuvant) was 4, the Fold-potentiation of rifampicin (A. baumannii 110193; with 1 μg/mL adjuvant) was 32 and the MIC alone (A. baumannii AB027; AB027, 18 h) was 256 µg/mL. For the same molecule, the MIC alone (A. baumannii AB027; [10]) was > 256 µg/mL, the “Fold potentiation of aztreonam” value (A. baumannii AB027; with 8 μg/mL adjuvant) was 2 and the Fold-potentiation of ceftazidime (A. baumannii AB027; with 8 μg/mL adjuvant) was 2. It also gave a Fold-potentiation of erythromycin (A. baumannii AB027; with 8 μg/mL adjuvant) of 16, a Fold-potentiation of rifampicin (A. baumannii AB027; with 8 μg/mL adjuvant) of 64 and an MIC alone (A. baumannii 92247; 92247, 18 h) of 256 µg/mL. For the same molecule, the “Fold potentiation of aztreonam” value (A. baumannii 92247; with 8 μg/mL adjuvant) was 1, the Fold-potentiation of ceftazidime (A. baumannii 92247; with 8 μg/mL adjuvant) was 1 and the Fold-potentiation of erythromycin (A. baumannii 92247; with 8 μg/mL adjuvant) was 1. For the same molecule, the Fold-potentiation of rifampicin (A. baumannii 92247; with 8 μg/mL adjuvant) was 32, the MIC (E. coli ATCC 25922) was >256 µg/mL and the MIC alone (A. baumannii AB031; [10]) was > 256 µg/mL. The “Fold potentiation of aztreonam” value (A. baumannii AB031; with 0.5 μg/mL adjuvant) was 1, the Fold-potentiation of ceftazidime (A. baumannii AB031; with 0.5 μg/mL adjuvant) was 1 and the Fold-potentiation of erythromycin (A. baumannii AB031; with 0.5 μg/mL adjuvant) was 4. For the same molecule, the Fold-potentiation of rifampicin (A. baumannii AB031; with 0.5 μg/mL adjuvant) was 8, the MIC adjuvant alone (P. aeruginosa PA 88949 [6]; PA 88949, 18 h) was 16 µM and the “Fold potentiation of aztreonam” value (P. aeruginosa PA 88949 [6]; [11]) was 1. The “Fold potentiation of ceftazidime” value (P. aeruginosa PA 88949 [6]; [11]) was 1, the MIC adjuvant alone (P. aeruginosa PA 86052 [7]) was 16 µM and the MIC adjuvant alone (P. aeruginosa PA 107092 [8]; PA 107092, 18 h) was 56 µM. For the same molecule, the “Fold potentiation of aztreonam” value (P. aeruginosa PA 107092 [8]; adjuvant at 2 μg/mL as printed) was 4, the “Fold potentiation of ceftazidime” value (P. aeruginosa PA 107092 [8]; adjuvant at 2 (PMBN, GCol), 1 (GPMB) μg/mL) was 8 and the “Fold potentiation of aztreonam” value (P. aeruginosa PA 107092 [8]; [12]) was 4. For the same molecule, the “Fold potentiation of ceftazidime” value (P. aeruginosa PA 107092 [8]; [12]) was 8, the MIC adjuvant alone (P. aeruginosa PA 109084 [9]; PA 109084, 18 h) was 56 µM and the “Fold potentiation of ceftazidime” value (P. aeruginosa PA 109084 [9]; adjuvant at 1 μg/mL as printed) was 16. For the same molecule, the “Fold potentiation of aztreonam” value (P. aeruginosa PA 109084 [9]; adjuvant at 1 (PMBN, GCol), 0.5 (GPMB) μg/mL as printed) was 16, the “Fold potentiation of ceftazidime” value (P. aeruginosa PA 109084 [9]; with 8 μM avibactam, adjuvant at 2 μg/mL as printed) was 4 and the “Fold potentiation of aztreonam” value (P. aeruginosa PA 109084 [9]; with 8 μM avibactam, adjuvant at 2 (PMBN), 0.5 (GCol, GPMB) μg/mL as printed) was 16. For the same molecule, the MIC alone (E. coli 107115; 107115, 18 h) was < 256 µg/mL, the MIC alone (E. coli 107115; [10]) was > 256 µg/mL and the Fold-potentiation of erythromycin (E. coli 107115; with 1 μg/mL adjuvant) was 32. The Fold-potentiation of rifampicin (E. coli 107115; with 1 μg/mL adjuvant) was 512 and the Fold-potentiation of ceftazidime (E. coli 107115; with 2 μg/mL adjuvant) was 32.

Reference: paper PMC9598282 (Antibiotics, 2022)
